According to US20170202939A1, “PERSONALIZED CANCER VACCINES AND METHODS THEREFOR” (Washington University, priority 2014, published 2017):
Read-outs that look alike come from different tables or passages of the source. No end group written: not given here.

Columns and labels:
HLA-A*02:01 = molecular target: T1, HLA-A*02:01 (Homo sapiens, UniProt P04439, D140Y/D185E/D98H/E176V/E277Q/G131W/G231S/I119V/I121R/I166T/I218V/L300P/L318F/N151K/N90K/P208A/P217A/Q86G/Q94H/R138H/R169H/T345S); assay: fluorescence polarization-based competitive peptide binding assay
T1 construct: purchased Pure Protein, L.L.C

[1] = system: neoantigen-specific CD8+ T cells; assay: immune monitoring of vaccinated patients, HLA/peptide dextramer (tetramer) assay on cultured PBMC; format: in vivo, human; conditions: for Immunogenicity: AAS-directed CD8+ T cell response in vaccinated patient; for frequency of neoantigen-specific CD8+ T cells / T cell response upon vaccination: post-vaccine PBMC, dextramer assay; for frequency of neoantigen-specific CD8+ T cells: upon culture, at the peak of response; for Spontaneous Immunity: pre-vaccine (naturally-occurring) CD8+ T cell response, immune monitoring assay; for pre-existing (naturally occurring) T cell immunity: pre-vaccine PBMC samples after in vitro stimulation
Procedure: Immunologic monitoring (Examples 1-10). Immunologic analysis to evaluate the kinetics and magnitude of T cell response to gp100 peptides was performed using PBMCs collected weekly (prior to vaccination and until week 21. Fresh PBMCs obtained by Ficoll-Hypaque gradient centrifugation were adjusted to 2×10^6 cells/ml in Stemline media (Sigma-Aldrich) containing 5% human AB-serum, and dispersed at 1 ml/well in 24-well plates. Cultures were set up for the gp100 peptides and the CMV pp65 peptide (positive peptide control). Cultures were pulsed with 40 μg/ml peptide and 50 U/ml IL-2 fed starting at 48 hours and every other day thereafter. On day 12 (peak of response; the inventors' unpublished observation), cultures were harvested, counted, and stained for flow cytometry analysis. To assess the antigen-specific T cell frequency, cells were stained with HLAA*0201/peptide tetramers (Beckman Coulter) for 30 minutes at room temperature, followed by addition of FITC-conjugated CD4, CD14, CD19, and CD56 and allophycocyanin-conjugated CD8 (Invitrogen) for 15 minutes at 4° C. Cells were washed and resuspended in FACS buffer, and 7AAD was added 5 minutes before analysis. Control CMV pp65-specific CD8+ T cells were detected in all CMV-seropositive patients before and after immunization. A negative HLA-A*0201/HIV gag peptide tetramer control was included. 25,000 events in the CD8+ gate were collected using a hierarchical gating strategy that included FSC/SSC and excluded 7AAD+ (dead) cells and CD4+CD14+CD19+CD56+ cells. Data were acquired and analyzed using Flow-Jo software.
To examine the kinetics and magnitude of T cell immunity to AAS peptides upon vaccination, peripheral blood mononuclear cells (PBMC) were collected prior to vaccination and weekly thereafter. The CD8+ T cell response to each peptide was analyzed using a HLA-A*02:01/AAS-peptide dextramer assay after a single round of in vitro stimulation. FIG. 30A illustrates kinetics of immune responses to neoantigens. Time is recorded in weeks (0 indicates pre-vaccination). Culture conditions and staining details are described infra. Antigen-specific numbers were calculated based on dextramer percentage and total live cell yields. Immunologic analysis to evaluate the kinetic and magnitude of T cell response to AAS-encoding and gp100-derived peptides was performed using PBMC collected weekly, starting before DC vaccination (Pre-vaccine in the figures) as described (Carreno, B. M., et al., J. Clin. Invest., 123, 3383-3394, 2013). Briefly, fresh PBMC obtained by Ficoll-Paque PLUS gradient centrifugation were cultured with 40 ug/mL peptide and IL-2 (50 U/mL). On day 10 (peak of response, unpublished data, labeled “Post-Vaccine” in the figures), neoantigen specific T cell frequencies were determined by staining with HLA-A*02:01/peptide dextramers (Immudex), followed by addition of FITC-CD4, -CD14, -CD19 (Invitrogen) and ALEXA® 488-CD56 (BD Pharmigen), APC-CD8 (Invitrogen). Cells were washed, resuspended in FACS buffer containing 7AAD. Twenty five thousand events in the CD8+ gate were collected using a hierarchical gating strategy that included FSC/SSC and excluded 7AAD-positive (dead cells) and CD4/14/19/56-positive cells. PBMC/CD8+ T cells derived from an unrelated HLA-A*02:01 patient were used as negative controls for assessing specificity of HLA-A*02:01/AAS-peptide dextramers (data not shown). Data were acquired and analyzed using Flow-Jo software. […] FIG. 30B illustrates the frequency of neoantigen specific T cells in CD8+ populations isolated directly from PBMC samples and after ex-vivo expansion using autologous DC and artificial antigen presenting cells. For dominant neoantigens TMEM48 F169L, SEC24A P469L and EXOC8 Q656, results are shown for samples obtained before vaccination (Pre-vaccine) and after 3 vaccine doses (Post-vaccine). For remaining neoantigens, results obtained with post-vaccine PBMC samples are shown. […]

[2] = fluorescence polarization-based competitive peptide-binding assay, high affinity log(IC50; nM) <3.7, read-out: Experimental Affinity log(IC50) (converted)

Sequence	IC50 (HLA-A*02:01; [2])	Immunogenicity [1]	frequency of neoantigen-specific CD8+ T cells [1]	Spontaneous Immunity [1]	pre-existing (naturally occurring) T cell immunity [1]	IC50 (HLA-A*02:01)	T cell response upon vaccination [1]
CLNEYHLFL	1230 nM	Yes	23%	Yes	could be detected in pre-vaccine PBMC samples	–	–
IILVAVPHV	–	–	89%	–	could be detected in pre-vaccine PBMC samples	–	–
KLMNIQQKL	–	Yes	47%	No	–	1170 nM	reveal two additional ones
MLGEQLFPL	224 nM	Yes	84%	No	–	–	–
QLSCISTYV	1260 nM	Yes	42%	No	–	–	reveal two additional ones
